Test results: patent US20230322846A9, “NEUROACTIVE STEROIDS AND THEIR METHODS OF USE” (SAGE THERAPEUTICS, INC., priority 2018, published 2023)

Target: [35S]-TBPS binding, rat brain cortical membranes
Test: Steroid inhibition of [35S]-TBPS binding
Details: 3 nM [35S]-TBPS, in the presence of 5 mM GABA
Outline: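 Rat cortical P2 membranes incubated 90 min at room temperature with 3 nM [35S]-TBPS, […] and test compound (0.5% DMSO final) in NaCl/Na–K phosphate pH 7.4; nonspecific binding with […]. Filter-bound radioactivity counted; IC50 and Imax from nonlinear fits, mean ± SEM.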

SMILES	IC50
C[C@@H](Cn1cc(C#N)cn1)[C@@]1(O)CC[C@H]2[C@@H]3CC[C@@H]4C[C@](C)(O)CC[C@@H]4[C@H]3CC[C@@]21C [Example 345, 1-((S)-2-((3R,5R,8R,9R,10S,13S,14S,17S)-3,17-dihydroxy-3,13-dimethylhexadecahydro-1H-cyclopenta[a]phenanthren-17-yl)propyl)-1H-pyrazole-4-carbonitrile]	1 to 10 µM
C[C@H](Cn1cc(C#N)cn1)[C@@]1(O)CC[C@H]2[C@@H]3CC[C@@H]4C[C@](C)(O)CC[C@@H]4[C@H]3CC[C@@]21C [Example 346, 1-((R)-2-((3R,5R,8R,9R,10S,13S,14S,17S)-3,17-dihydroxy-3,13-dimethylhexadecahydro-1H-cyclopenta[a]phenanthren-17-yl)propyl)-1H-pyrazole-4-carbonitrile]	1 to 10 µM
CCC[C@@]1(O)CC[C@H]2[C@H](CC[C@@H]3[C@@H]2CC[C@@]2(C)[C@H]3CC[C@]2(O)[C@@H](C)Cn2cc(C#N)cn2)C1 [Example 347, 1-((S)-2-((3R,5R,8R,9R,10S,13S,14S,17S)-3,17-dihydroxy-13-methyl-3-propylhexadecahydro-1H-cyclopenta[a]phenanthren-17-yl)propyl)-1H-pyrazole-4-carbonitrile]	1 to 10 µM
CCC[C@@]1(O)CC[C@H]2[C@H](CC[C@@H]3[C@@H]2CC[C@@]2(C)[C@H]3CC[C@]2(O)[C@H](C)Cn2cc(C#N)cn2)C1 [Example 348, 1-((R)-2-((3R,5R,8R,9R,10S,13S,14S,17S)-3,17-dihydroxy-13-methyl-3-propylhexadecahydro-1H-cyclopenta[a]phenanthren-17-yl)propyl)-1H-pyrazole-4-carbonitrile]	1 to 10 µM
CCC[C@@]1(O)CC[C@H]2[C@@H](CC[C@@H]3[C@@H]2CC[C@]2(C)[C@@H]([C@@H](C)Cn4cc(C#N)cn4)CC[C@@H]32)C1 [Example 349, 1-((R)-2-((3R,5S,8R,9R,10S,13S,14S,17R)-3-hydroxy-13-methyl-3-propylhexadecahydro-1H-cyclopenta[a]phenanthren-17-yl)propyl)-1H-pyrazole-4-carbonitrile]	≥ 10 µM
CCC[C@@]1(O)CC[C@H]2[C@@H](CC[C@@H]3[C@@H]2CC[C@]2(C)[C@@H]([C@H](C)Cn4cc(C#N)cn4)CC[C@@H]32)C1 [Example 350, 1-((S)-2-((3R,5S,8R,9R,10S,13S,14S,17R)-3-hydroxy-13-methyl-3-propylhexadecahydro-1H-cyclopenta[a]phenanthren-17-yl)propyl)-1H-pyrazole-4-carbonitrile]	≥ 10 µM
COC[C@@]1(O)CC[C@@]2(C)[C@H](CC[C@@H]3[C@@H]2CC[C@@]2(C)[C@H]3CC[C@]2(O)[C@@H](C)Cn2cc(C#N)cn2)C1 [Example 351, 1-((S)-2-((3R,5R,8R,9S,10S,13S,14S,17S)-3,17-dihydroxy-3-(methoxymethyl)-10,13-dimethylhexadecahydro-1H-cyclopenta[a]phenanthren-17-yl)propyl)-1H-pyrazole-4-carbonitrile]	1 to 10 µM
COC[C@@]1(O)CC[C@@]2(C)[C@H](CC[C@@H]3[C@@H]2CC[C@@]2(C)[C@H]3CC[C@]2(O)[C@H](C)Cn2cc(C#N)cn2)C1 [Example 352, 1-((R)-2-((3R,5R,8R,9S,10S,13S,14S,17S)-3,17-dihydroxy-3-(methoxymethyl)-10,13-dimethylhexadecahydro-1H-cyclopenta[a]phenanthren-17-yl)propyl)-1H-pyrazole-4-carbonitrile]	1 to 10 µM
COC[C@@]1(O)CC[C@H]2[C@H](CC[C@@H]3[C@@H]2CC[C@@]2(C)[C@H]3CC[C@]2(O)[C@H](C)Cn2cc(C#N)cn2)C1 [Example 353]	1 to 10 µM
COC[C@@]1(O)CC[C@H]2[C@H](CC[C@@H]3[C@@H]2CC[C@@]2(C)[C@H]3CC[C@]2(O)[C@@H](C)Cn2cc(C#N)cn2)C1 [Example 354]	1 to 10 µM
C[C@@]1(O)CC[C@H]2[C@H](CC[C@@H]3[C@@H]2CC[C@]2(C)[C@@H]([C@H](C#N)Cn4cc(C#N)cn4)CC[C@@H]32)C1 [Example 355, 1-((S)-2-cyano-2-((3R,5R,8R,9R,10S,13S,14S,17R)-3-hydroxy-3,13-dimethylhexadecahydro-1H-cyclopenta[a]phenanthren-17-yl)ethyl)-1H-pyrazole-4-carbonitrile]	< 0.1 µM
C[C@@]1(O)CC[C@H]2[C@H](CC[C@@H]3[C@@H]2CC[C@]2(C)[C@@H]([C@@H](C#N)Cn4cc(C#N)cn4)CC[C@@H]32)C1 [Example 356, 1-((R)-2-cyano-2-((3R,5R,8R,9R,10S,13S,14S,17R)-3-hydroxy-3,13-dimethylhexadecahydro-1H-cyclopenta[a]phenanthren-17-yl)ethyl)-1H-pyrazole-4-carbonitrile]	< 0.1 µM
CC[C@@]1(O)CC[C@@]2(C)[C@@H](CC[C@@H]3[C@@H]2CC[C@]2(C)[C@@H]([C@@H](C)Cn4nnc(C)n4)CC[C@@H]32)C1 [Example 359, (3R,5S,8R,9S,10S,13S,14S,17R)-3-ethyl-10,13-dimethyl-17-((R)-1-(5-methyl-2H-tetrazol-2-yl)propan-2-yl)hexadecahydro-1H-cyclopenta[a]phenanthren-3-ol]	≥ 10 µM
CC[C@@]1(O)CC[C@@]2(C)[C@@H](CC[C@@H]3[C@@H]2CC[C@]2(C)[C@@H]([C@H](C)Cn4nnc(C)n4)CC[C@@H]32)C1 [Example 360, (3R,5S,8R,9S,10S,13S,14S,17R)-3-ethyl-10,13-dimethyl-17-((S)-1-(5-methyl-2H-tetrazol-2-yl)propan-2-yl)hexadecahydro-1H-cyclopenta[a]phenanthren-3-ol]	1 to 10 µM
CCC[C@@]1(O)CC[C@H]2[C@H](CC[C@@H]3[C@@H]2CC[C@]2(C)[C@@H]([C@@H](C)Cn4cc(C#N)cn4)[C@H](O)C[C@@H]32)C1 [Example 362, 1-((R)-2-((3R,5R,8R,9R,10S,13S,14S,16R,17R)-3,16-dihydroxy-13-methyl-3-propylhexadecahydro-1H-cyclopenta[a]phenanthren-17-yl)propyl)-1H-pyrazole-4-carbonitrile]	1 to 10 µM
CCC[C@@]1(O)CC[C@H]2[C@H](CC[C@@H]3[C@@H]2CC[C@]2(C)[C@@H]([C@@H](C)Cn4nnc(C)n4)C(=O)C[C@@H]32)C1 [Example 364, (3R,5R,8R,9R,10S,13S,14S,17R)-3-hydroxy-13-methyl-17-((R)-1-(5-methyl-2H-tetrazol-2-yl)propan-2-yl)-3-propyltetradecahydro-1H-cyclopenta[a]phenanthren-16(2H)-one]	0.1 to 1 µM
CCC[C@@]1(O)CC[C@H]2[C@H](CC[C@@H]3[C@@H]2CC[C@]2(C)[C@@H]([C@H](C)Cc4ccc(C#N)nc4)CC[C@@H]32)C1 [Example 400, 5-((R)-2-((3R,5R,8R,9R,10S,13R,14S,17R)-3-hydroxy-13-methyl-3-propylhexadecahydro-1H-cyclopenta[a]phenanthren-17-yl)propyl)picolinonitrile]	< 0.1 µM
